Results published in patent US9206122B2, “Pesticidal arylpyrrolidines” (BAYER INTELLECTUAL PROPERTY GMBH, priority 2012, dated 2015).

Assays:
Format in all cases: in vivo
Boophilus microplus = Boophilus microplus injection test; conditions: 20 μg/animal, injected into abdomen of adult engorged female ticks; egg deposition monitored after 7 days
Experimental: Boophilus microplus Injectiontest Solvent: dimethyl sulfoxide To produce a suitable preparation of active compound, 10 mg of active compound are dissolved in 0.5 ml solvent, and the concentrate is diluted with solvent to the desired concentration. Five adult engorged female ticks (Boophilus microplus) are injected with 1 μl compound solution into the abdomen. Ticks are transferred into replica plates and incubated in a climate chamber. After 7 days, the egg deposition of fertile eggs is monitored. Eggs where fertility is not visible are stored in glass tubes in a climate chamber till hatching after about 42 days. An efficacy of 100% means that all eggs are infertile; 0% means that all eggs are fertile.

Ctenocephalides felis = experiment: whole plant or invertebrate; conditions: po, 48 h
Experimental: Ctenocephalides felis—Oral Test
(§1) Solvent: dimethyl sulfoxide
To produce a suitable preparation of active compound, 10 mg of active compound are dissolved in 0.5 ml solvent, and the concentrate is diluted with cattle blood to the desired concentration.
Approximately 20 adult unfed cat fleas (Ctenocephalides felis) are placed in flea chambers. The blood chamber, sealed with parafilm on the bottom, are filled with cattle blood supplied with compound solution and placed on the gauze covered top of the flea chamber, so that the fleas are able to suck the blood. The blood chamber is heated to 37° C. whereas the flea chamber is kept at room temperature.
After 2 days mortality in % is determined 100% means that all the fleas have been killed; 0% means that none of the fleas have been killed.

Lucilia cuprina = experiment: whole plant or invertebrate; conditions: in Equus caballus, 48 h
Experimental: solvent: dimethyl sulfoxide
10 mg active compound are dissolved in 0.5 ml Dimethylsulfoxid. Serial dilutions are made to obtain the desired rates.
Approximately 20 1st instar larvae of the Australian sheep blowfly (Lucilia cuprina) are transferred into a test tube containing minced horse meat and compound solution of the desired concentration.
After 2 days mortality in % is determined. 100% means that all the larvae have been killed; 0% means that none of the larvae have been killed.

Musca domestica = experiment: whole plant or invertebrate; conditions: 48 h
Experimental: as §1
To produce a suitable preparation of active compound, 10 mg of active compound are dissolved in 0.5 ml solvent, and the concentrate is diluted with water to the desired concentration.
10 adult house flies (Musca domestica) are transferred into a container, containing a sponge soaked with a mixture of sugar solution and compound solution of the desired concentration.
After 2 days mortality in % is determined. 100% means that all the flies have been killed; 0% means that none of the flies have been killed.

Myzus persicae = experiment: whole plant or invertebrate; conditions: in Brassica rapa, foliar, 144 h
Experimental: Myzus persicae—Spray Test
(§2) Solvent: 78.0 parts by weight acetone
(§3) • 1.5 parts by weight dimethylformamide Emulsifier: 0.5 parts by weight alkylarylpolyglycolether
(§4) To produce a suitable preparation of active compound, 1 part by weight of active compound is mixed with the stated amount of solvent and emulsifier, and the concentrate is diluted with emulsifier-containing water to the desired concentration.
Chinese cabbage (Brassica pekinensis) leaf disks infected with all instars of the green peach aphid (Myzus persicae), are sprayed with a preparation of the active ingredient of the desired concentration.
After 6 days, mortality in % is determined 100% means that all aphids have been killed; 0% means that none of the aphids have been killed.

Phaedon cochleariae = experiment: whole plant or invertebrate; conditions: in Brassica rapa, foliar, 168 h
Experimental: Phaedon cochleariae—Spray Test
Solvent: 78.0 parts by weight of acetone
• 1.5 parts by weight of dimethylformamide Emulsifier: 0.5 parts by weight of alkylaryl polyglycolether
as §4
Chinese cabbage (Brassica pekinensis) leaf-disks are sprayed with a preparation of the active ingredient of the desired concentration. Once dry, the leaf disks are infested with mustard beetle larvae (Phaedon cochleariae).
After 7 days mortality in % is determined. 100% means that all beetle larvae have been killed and 0% means that none of the beetle larvae have been killed.

Spodoptera frugiperda = experiment: whole plant or invertebrate; conditions: in Zea mays, 168 h
Experimental: Spodoptera frugiperda—Spray Test
as §2, §3
To produce a suitable preparation of the active compound, 1 part by weight of active compound is mixed with the stated amount of solvent and emulsifier, and the concentrate is diluted with emulsifier-containing water to the desired concentration.
Maize (Zea mays) leaf sections are sprayed with a preparation of the active ingredient of the desired concentration. Once dry, the leaf sections are infested with fall armyworm larvae (Spodoptera frugiperda).
After 7 days, mortality in % is determined 100% means that all caterpillars have been killed and 0% means that none of the caterpillars have been killed.

Tetranychus urticae = experiment: whole plant or invertebrate; conditions: 144 h
Experimental: Tetranychus urticae—Spray Test, OP-Resistant
as §2, §3, §4
French beans (Phaseolus vulgaris) which are heavily infested with all stages of the two spotted spidermite (Tetranychus urticae), are sprayed with a preparation of the active ingredient of the desired concentration.
After 6 days, mortality in % is determined. 100% means that all spider mites have been killed and 0% means that none of the spider mites have been killed.

With `CC(=O)NC1CCc2cc(N3CCC(c4cc(Cl)cc(Cl)c4)(C(F)(F)F)C3O)ccc21` (stereo not drawn) [I-A-1] the “efficacy (100% means that all eggs are infertile)” value (Boophilus microplus) was 100%.

In the case of `CCC(=O)NC1CCc2cc(N3CCC(c4cc(Cl)cc(Cl)c4)(C(F)(F)F)C3O)ccc21` (stereo not drawn) [I-A-2], the “efficacy (100% means that all eggs are infertile)” value (Boophilus microplus) is reported as 100%, the mortality at 100 ppm (Ctenocephalides felis) is reported as 100% and the mortality at 100 ppm (Lucilia cuprina) is reported as 100%. For the same molecule, the mortality at 100 ppm (Musca domestica) was 80%.

For `CC(=O)NC1CCc2cc(N3CCC(c4cc(Cl)c(Cl)c(Cl)c4)(C(F)(F)F)C3O)ccc21` (stereo not drawn) [I-A-13], the “efficacy (100% means that all eggs are infertile)” value (Boophilus microplus) was 100%.

With `CC(C)CC(=O)NC1CCc2cc(N3CCC(c4cc(Cl)c(Cl)c(Cl)c4)(C(F)(F)F)C3O)ccc21` (stereo not drawn) [I-A-18] the “efficacy (100% means that all eggs are infertile)” value (Boophilus microplus) was 100%.

With `O=C(CC1CC1)NC1CCc2cc(N3CCC(c4cc(Cl)c(Cl)c(Cl)c4)(C(F)(F)F)C3O)ccc21` (stereo not drawn) [I-A-21] the “efficacy (100% means that all eggs are infertile)” value (Boophilus microplus) was 100%.

`O=C(NC1CCc2cc(N3CCC(c4cc(Cl)c(F)c(Cl)c4F)(C(F)(F)F)C3O)ccc21)C1CC1` (stereo not drawn) [I-A-31] was tested, and the “efficacy (100% means that all eggs are infertile)” value (Boophilus microplus) was 100%.

With `O=C(CC1CC1)NC1CCc2cc(N3CCC(c4cc(Cl)c(F)c(Cl)c4F)(C(F)(F)F)C3O)ccc21` (stereo not drawn) [I-A-33] the “efficacy (100% means that all eggs are infertile)” value (Boophilus microplus) was 100%.

In the case of `CC(=O)NC1CCc2cc(N3CCC(c4cc(C(F)(F)F)cc(C(F)(F)F)c4)(C(F)(F)F)C3O)ccc21` (stereo not drawn) [I-A-37], the “efficacy (100% means that all eggs are infertile)” value (Boophilus microplus) is reported as 100%.

For `CCC(=O)NC1CCc2cc(N3CCC(c4cc(C(F)(F)F)cc(C(F)(F)F)c4)(C(F)(F)F)C3O)ccc21` (stereo not drawn) [I-A-38, N-(5-{3-[3,5-bis(trifluoromethyl)phenyl]-2-hydroxy-3-(trifluoromethyl)pyrrolidin-1-yl}-2,3-dihydro-1H-inden-1-yl)propanamide], the mortality at 100 g/ha (Myzus persicae) was 100%, the mortality at 100 g/ha (Phaedon cochleariae) was 100% and the mortality at 100 g/ha (Spodoptera frugiperda) was 100%. For the same molecule, the mortality at 100 g/ha (Tetranychus urticae) was 90%.

In the case of `CCCC(=O)NC1CCc2cc(N3CCC(c4cc(C(F)(F)F)cc(C(F)(F)F)c4)(C(F)(F)F)C3O)ccc21` (stereo not drawn) [I-A-40], the “efficacy (100% means that all eggs are infertile)” value (Boophilus microplus) is reported as 100%.

`O=C(NC1CCc2cc(N3CCC(c4cc(Cl)cc(C(F)(F)F)c4)(C(F)(F)F)C3O)ccc21)C1CC1` (stereo not drawn) [I-A-79] was tested, and the “efficacy (100% means that all eggs are infertile)” value (Boophilus microplus) was 100%.

`O=C(NC1CCc2cc(N3CCC(c4ccc(F)c(C(F)(F)F)c4)(C(F)(F)F)C3O)ccc21)C1CC1` (stereo not drawn) [I-A-115] was tested, and the “efficacy (100% means that all eggs are infertile)” value (Boophilus microplus) was 100%.
